{"source": "paper PMC9032385", "about": "“A2A Adenosine Receptor Antagonists: Are Triazolotriazine and Purine Scaffolds Interchangeable?” (Molecules, 2022)", "target": "T1, A2BAR (Homo sapiens, UniProt P29275)", "T1 construct": "expressed in transfected cells", "T1 sequence (P29275 1-332)": "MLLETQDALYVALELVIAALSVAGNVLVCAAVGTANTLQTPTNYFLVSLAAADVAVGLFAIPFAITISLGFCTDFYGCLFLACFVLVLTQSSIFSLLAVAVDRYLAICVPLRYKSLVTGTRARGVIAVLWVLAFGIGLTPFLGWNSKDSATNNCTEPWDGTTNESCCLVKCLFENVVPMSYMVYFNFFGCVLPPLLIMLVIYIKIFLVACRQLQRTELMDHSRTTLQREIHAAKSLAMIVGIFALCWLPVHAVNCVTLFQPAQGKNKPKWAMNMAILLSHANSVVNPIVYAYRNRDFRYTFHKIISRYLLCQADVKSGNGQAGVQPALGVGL", "test": "Functional study at A2BAR (GloSensor cAMP assay; inhibition of NECA-stimulated adenylyl cyclase activity)", "format": "cell-based", "settings": "Ki calculated from IC50 of inhibition of NECA-stimulated adenylyl cyclase activity, CHO cells", "protocol": "The affinities of the newly synthesized compounds 7–13 and 17–21 were determined in binding studies at human recombinant A1, A2A, and A3 ARs, stably transfected in Chinese hamster ovary (CHO) cells, using [^3H]CCPA (2-chloro-N^6-cyclopentylAdo), [^3H]NECA (5′-N-ethylcarboxamidoAdo), and [^3H]HEMADO (2-hexynyl-N^6-methylAdo) as respective radioligands. Most of the compounds were also evaluated at A2BARs in a functional study using the GloSensor cAMP assay. The results are reported in Table 1 as Ki values in nM (± standard errors). In the case of A2BARs, Ki-values were calculated from IC50-values determined by the inhibition of NECA-stimulated adenylyl cyclase activity."}
{"smiles": "CCn1c(-c2ccco2)nc2c(N)nc(NCCc3ccc(O)cc3)nc21", "note": "[compound 13, 4-(2-((6-Amino-9-ethyl-8-(furan-2-yl)-9H-purin-2-yl)amino)ethyl)phenol]", "values": [{"measurement": "Ki", "result": 1430, "unit": "nM"}]}
